# Experimental data reported in ChEMBL document CHEMBL1201862, “PubChem BioAssay data set” (2004).
#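 A five-concentration, 48-hour dose response in 96-well plates underlies each endpoint, interpolated linearly between surrounding concentrations. At the GI50, growth is halved.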 Calls of active or inactive are those of the source. Cut-off read from the data, not from the text of the source: active = GI50 up to about 1.1 µM and inactive = higher.
# Columns and labels:
# Assay in all cases: inhibition of tumour cell growth, NCI panel, 48 h
# A498 = system: A498
# OVCAR-3 = system: OVCAR-3
# RXF 393 = system: RXF 393
# SF-539 = system: SF-539
# BT-549 = system: BT-549
# T47D = system: T47D
# ACHN = system: ACHN
# LOX IMVI = system: LOX IMVI
# UACC-62 = system: UACC-62
# HCC 2998 = system: HCC 2998
# RPMI-8226 = system: RPMI-8226
# M14 = system: M14
# MDA-N = system: MDA-N
# NCI-H23 = system: NCI-H23
# 786-0 = system: 786-0
# UO-31 = system: UO-31
# MOLT-4 = system: MOLT-4
# Hs-578T = system: Hs-578T
# SNB-19 = system: SNB-19
# NCI-H226 = system: NCI-H226
# OVCAR-8 = system: OVCAR-8
# MCF7 = system: MCF7
# CCRF-CEM = system: CCRF-CEM
# COLO 205 = system: COLO 205
# SW-620 = system: SW-620
# U-251 = system: U-251
# MDA-MB-435 = system: MDA-MB-435
# NCI-H460 = system: NCI-H460
# DU-145 = system: DU-145
# SNB-75 = system: SNB-75
# SF-268 = system: SF-268
# HCT-116 = system: HCT-116
# MDA-MB-231 = system: MDA-MB-231
# OVCAR-4 = system: OVCAR-4
# PC-3 = system: PC-3
# SK-OV-3 = system: SK-OV-3
# HCT-15 = system: HCT-15
# OVCAR-5 = system: OVCAR-5
# SF-295 = system: SF-295
# K562 = system: K562
# EKVX = system: EKVX
# SN12C = system: SN12C
# HOP-62 = system: HOP-62
# SK-MEL-5 = system: SK-MEL-5
# TK-10 = system: TK-10
# KM12 = system: KM12
# IGROV-1 = system: IGROV-1
# UACC-257 = system: UACC-257
# NCI/ADR-RES = system: NCI/ADR-RES
# HOP-92 = system: HOP-92
# CAKI-1 = system: CAKI-1
# NCI-H522 = system: NCI-H522
# SR = system: SR
# SK-MEL-2 = system: SK-MEL-2
# SK-MEL-28 = system: SK-MEL-28
# HL-60 = system: HL-60
# A549 = system: A549
# HT-29 = system: HT-29
# Malme-3M = system: Malme-3M
smiles,measurement,setting,value
C#CCOC(=O)c1ccc(OC(C)=O)cc1,GI50,A498,> 100 µM (inactive)
same,GI50,OVCAR-3,> 100 µM (inactive)
same,GI50,RXF 393,> 100 µM (inactive)
same,GI50,SF-539,> 100 µM (inactive)
same,GI50,BT-549,> 100 µM (inactive)
same,GI50,T47D,> 100 µM (inactive)
same,GI50,ACHN,> 100 µM (inactive)
same,GI50,LOX IMVI,> 100 µM (inactive)
same,GI50,UACC-62,> 100 µM (inactive)
same,GI50,HCC 2998,> 100 µM (inactive)
same,GI50,RPMI-8226,> 100 µM (inactive)
same,GI50,M14,> 100 µM (inactive)
same,GI50,MDA-N,> 100 µM (inactive)
same,GI50,NCI-H23,> 100 µM (inactive)
same,GI50,786-0,> 100 µM (inactive)
same,GI50,UO-31,> 100 µM (inactive)
same,GI50,MOLT-4,> 100 µM (inactive)
same,GI50,Hs-578T,> 100 µM (inactive)
same,GI50,SNB-19,> 100 µM (inactive)
same,GI50,NCI-H226,> 100 µM (inactive)
same,GI50,OVCAR-8,> 100 µM (inactive)
same,GI50,MCF7,> 100 µM (inactive)
same,GI50,CCRF-CEM,> 100 µM (inactive)
same,GI50,COLO 205,> 100 µM (inactive)
same,GI50,SW-620,> 100 µM (inactive)
same,GI50,U-251,> 100 µM (inactive)
same,GI50,MDA-MB-435,> 100 µM (inactive)
same,GI50,NCI-H460,> 100 µM (inactive)
same,GI50,DU-145,> 100 µM (inactive)
same,GI50,SNB-75,> 100 µM (inactive)
same,GI50,SF-268,> 100 µM (inactive)
same,GI50,HCT-116,> 100 µM (inactive)
same,GI50,MDA-MB-231,> 100 µM (inactive)
same,GI50,OVCAR-4,> 100 µM (inactive)
same,GI50,PC-3,> 100 µM (inactive)
same,GI50,SK-OV-3,> 100 µM (inactive)
same,GI50,HCT-15,> 100 µM
same,GI50,OVCAR-5,> 100 µM (inactive)
same,GI50,SF-295,> 100 µM (inactive)
same,GI50,K562,> 100 µM (inactive)
same,GI50,EKVX,> 100 µM (inactive)
same,GI50,SN12C,> 100 µM (inactive)
same,GI50,HOP-62,> 100 µM (inactive)
same,GI50,SK-MEL-5,> 100 µM (inactive)
same,GI50,TK-10,> 100 µM (inactive)
same,GI50,KM12,> 100 µM (inactive)
same,GI50,IGROV-1,> 100 µM (inactive)
same,GI50,UACC-257,> 100 µM (inactive)
same,GI50,NCI/ADR-RES,> 100 µM (inactive)
same,GI50,HOP-92,> 100 µM (inactive)
same,GI50,CAKI-1,> 100 µM (inactive)
same,GI50,NCI-H522,> 100 µM (inactive)
same,GI50,SR,> 100 µM (inactive)
same,GI50,SK-MEL-2,> 100 µM (inactive)
Cc1ccc2nc(Cl)c(/C=N/N3C(=O)/C(=C/c4ccc(N(C)C)cc4)N=C3c3ccccc3)cc2c1,GI50,A498,43.8 µM (inactive)
same,GI50,OVCAR-3,13.9 µM (inactive)
same,GI50,SF-539,18.2 µM (inactive)
same,GI50,BT-549,> 100 µM (inactive)
same,GI50,T47D,43.4 µM (inactive)
same,GI50,ACHN,76.9 µM (inactive)
same,GI50,LOX IMVI,31.5 µM (inactive)
same,GI50,SK-MEL-28,> 100 µM (inactive)
same,GI50,UACC-62,43.4 µM (inactive)
same,GI50,HCC 2998,66.2 µM (inactive)
same,GI50,RPMI-8226,23.7 µM (inactive)
same,GI50,M14,47.8 µM (inactive)
same,GI50,HL-60,32.4 µM (inactive)
same,GI50,MDA-N,29.1 µM (inactive)
same,GI50,786-0,> 100 µM (inactive)
same,GI50,UO-31,37 µM (inactive)
same,GI50,MOLT-4,24.4 µM (inactive)
same,GI50,Hs-578T,40.1 µM (inactive)
same,GI50,SNB-19,> 100 µM (inactive)
same,GI50,OVCAR-8,41.8 µM (inactive)
same,GI50,MCF7,29 µM (inactive)
same,GI50,CCRF-CEM,29.9 µM (inactive)
same,GI50,COLO 205,51.1 µM (inactive)
same,GI50,SW-620,57.8 µM (inactive)
same,GI50,U-251,26 µM (inactive)
same,GI50,MDA-MB-435,22.1 µM (inactive)
same,GI50,NCI-H460,37.5 µM (inactive)
same,GI50,DU-145,80 µM (inactive)
same,GI50,SNB-75,24 µM (inactive)
same,GI50,SF-268,37.2 µM (inactive)
same,GI50,HCT-116,39.4 µM (inactive)
same,GI50,MDA-MB-231,38.9 µM (inactive)
same,GI50,A549,37.8 µM (inactive)
same,GI50,OVCAR-4,70 µM (inactive)
same,GI50,PC-3,47.6 µM (inactive)
same,GI50,SK-OV-3,> 100 µM (inactive)
same,GI50,HCT-15,55.2 µM
same,GI50,OVCAR-5,> 100 µM (inactive)
same,GI50,SF-295,29.9 µM (inactive)
same,GI50,K562,59.4 µM (inactive)
same,GI50,EKVX,80.9 µM (inactive)
same,GI50,SN12C,80.7 µM (inactive)
same,GI50,HOP-62,42.8 µM (inactive)
same,GI50,SK-MEL-5,48.5 µM (inactive)
same,GI50,TK-10,> 100 µM (inactive)
same,GI50,KM12,40.7 µM (inactive)
same,GI50,IGROV-1,29 µM (inactive)
same,GI50,UACC-257,80.2 µM (inactive)
same,GI50,HT-29,63.7 µM (inactive)
same,GI50,NCI/ADR-RES,32.7 µM (inactive)
same,GI50,HOP-92,71.3 µM (inactive)
same,GI50,CAKI-1,> 100 µM (inactive)
same,GI50,SR,32.6 µM (inactive)
same,GI50,SK-MEL-2,21.9 µM (inactive)
Cc1ccc(Cl)cc1/N=N/C(=O)NNc1cc(Cl)ccc1C,GI50,A498,20.3 µM (inactive)
same,GI50,OVCAR-3,14.7 µM (inactive)
same,GI50,RXF 393,21 µM (inactive)
same,GI50,BT-549,18.2 µM (inactive)
same,GI50,T47D,33.3 µM (inactive)
same,GI50,SK-MEL-28,18 µM (inactive)
same,GI50,UACC-62,11.2 µM (inactive)
same,GI50,Malme-3M,24 µM (inactive)
same,GI50,HCC 2998,40.4 µM (inactive)
same,GI50,RPMI-8226,19.9 µM (inactive)
same,GI50,M14,14.5 µM (inactive)
same,GI50,HL-60,58.9 µM (inactive)
same,GI50,MDA-N,31.8 µM (inactive)
same,GI50,NCI-H23,19.4 µM (inactive)
same,GI50,UO-31,14.1 µM (inactive)
same,GI50,MOLT-4,13.9 µM (inactive)
same,GI50,Hs-578T,23.8 µM (inactive)
same,GI50,SNB-19,19.4 µM (inactive)
same,GI50,NCI-H226,20.1 µM (inactive)
same,GI50,MCF7,27.8 µM (inactive)
same,GI50,CCRF-CEM,10 µM (inactive)
same,GI50,COLO 205,21.9 µM (inactive)
same,GI50,U-251,19.7 µM (inactive)
same,GI50,MDA-MB-435,25.2 µM (inactive)
same,GI50,NCI-H460,18 µM (inactive)
same,GI50,DU-145,21.4 µM (inactive)
same,GI50,SNB-75,13.1 µM (inactive)
same,GI50,HCT-116,25.4 µM (inactive)
same,GI50,MDA-MB-231,16.8 µM (inactive)
same,GI50,PC-3,10.1 µM (inactive)
same,GI50,SK-OV-3,20.3 µM (inactive)
same,GI50,HCT-15,17.1 µM
same,GI50,OVCAR-5,15.8 µM (inactive)
same,GI50,SF-295,19.4 µM (inactive)
same,GI50,K562,24.2 µM (inactive)
same,GI50,SN12C,29.4 µM (inactive)
same,GI50,HOP-62,10.8 µM (inactive)
same,GI50,SK-MEL-5,14.2 µM (inactive)
same,GI50,KM12,33.1 µM (inactive)
same,GI50,IGROV-1,15.3 µM (inactive)
same,GI50,HT-29,26.9 µM (inactive)
same,GI50,NCI/ADR-RES,19.9 µM (inactive)
same,GI50,HOP-92,15.5 µM (inactive)
same,GI50,CAKI-1,13.1 µM (inactive)
same,GI50,NCI-H522,13.1 µM (inactive)
same,GI50,SR,37.7 µM (inactive)
same,GI50,SK-MEL-2,13.9 µM (inactive)
